Like-named read-outs stand apart in the source and are kept apart here.
Molecular target: JAK3 enzyme (Homo sapiens (Human), UniProt P52333)
Test: JAK Caliper Enzyme Assay at 4 μM or 1 mM ATP
Type: biochemical
[1] = read-out: JAK3 (4 μM ATP) IC50, 4 μM ATP
[2] = read-out: JAK3 (1 mM ATP) IC50, 1 mM ATP

Sequence of JAK3 enzyme (P52333 whole entry, species assumed): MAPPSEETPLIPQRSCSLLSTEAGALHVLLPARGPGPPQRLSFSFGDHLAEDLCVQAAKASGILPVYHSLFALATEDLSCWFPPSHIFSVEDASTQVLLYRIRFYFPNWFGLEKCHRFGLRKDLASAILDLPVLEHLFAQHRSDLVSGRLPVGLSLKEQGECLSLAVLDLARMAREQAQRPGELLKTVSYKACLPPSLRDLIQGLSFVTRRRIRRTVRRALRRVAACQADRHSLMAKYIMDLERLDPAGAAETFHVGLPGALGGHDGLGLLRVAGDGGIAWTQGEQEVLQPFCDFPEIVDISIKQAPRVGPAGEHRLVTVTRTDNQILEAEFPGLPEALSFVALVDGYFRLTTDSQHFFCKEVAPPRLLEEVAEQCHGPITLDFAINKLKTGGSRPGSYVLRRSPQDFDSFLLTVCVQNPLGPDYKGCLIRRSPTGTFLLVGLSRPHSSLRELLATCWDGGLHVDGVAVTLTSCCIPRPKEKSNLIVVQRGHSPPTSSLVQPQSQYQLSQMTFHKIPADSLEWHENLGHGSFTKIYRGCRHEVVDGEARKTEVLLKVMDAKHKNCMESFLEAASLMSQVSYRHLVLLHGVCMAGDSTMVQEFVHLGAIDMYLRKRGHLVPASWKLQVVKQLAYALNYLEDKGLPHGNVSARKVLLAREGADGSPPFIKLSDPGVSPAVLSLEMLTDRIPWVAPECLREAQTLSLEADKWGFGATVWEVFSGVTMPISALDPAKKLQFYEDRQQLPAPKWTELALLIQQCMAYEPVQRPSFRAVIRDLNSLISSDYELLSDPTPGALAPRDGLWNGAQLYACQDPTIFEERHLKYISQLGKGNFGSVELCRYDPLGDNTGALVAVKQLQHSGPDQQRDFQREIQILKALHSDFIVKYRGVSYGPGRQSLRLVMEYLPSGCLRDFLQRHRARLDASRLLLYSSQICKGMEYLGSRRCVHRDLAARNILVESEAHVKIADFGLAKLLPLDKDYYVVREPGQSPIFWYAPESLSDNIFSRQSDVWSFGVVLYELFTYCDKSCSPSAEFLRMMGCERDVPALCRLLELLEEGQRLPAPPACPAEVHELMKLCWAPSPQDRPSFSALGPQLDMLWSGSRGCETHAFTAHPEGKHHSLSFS

| SMILES | IC50 [1] | IC50 [2] |
| --- | --- | --- |
| C=CC(=O)N1CCC[C@@H](Nc2ncnc3[nH]cc(C(=O)NCC)c23)C1 [Example 144, 4-{[(3R)-1-acryloylpiperidin-3-yl]amino}-N-ethyl-7H-pyrrolo[2,3-d]pyrimidine-5-carboxamide] | 0.139 µM |  |
| C=CC(=O)N1CCC[C@@H](Nc2ncnc3[nH]cc(C4CC4)c23)C1 [Example 37, 1-{(3R)-3-[(5-cyclopropyl-7H-pyrrolo[2,3-d]pyrimidin-4-yl)amino]piperidin-1-yl}prop-2-en-1-one] | 0.295 µM |  |
| C=CC(=O)N1C[C@H](Nc2ccnc3[nH]cc(C#N)c23)CC[C@@H]1C [Example 165, 4-{[(3R,6S)-1-Acryloyl-6-methylpiperidin-3-yl]amino}-1H-pyrrolo[2,3-b]pyridine-3-carbonitrile] | 0.0005 µM | 0.0227 µM |
| C=CC(=O)N1CCC(Nc2cnc3[nH]cc(-c4ccncc4F)c3n2)CC1 [Example 200, 1-(4-{[7-(3-fluoropyridin-4-yl)-5H-pyrrolo[2,3-b]pyrazin-2-yl]amino}piperidin-1-yl)prop-2-en-1-one] | 0.0008 µM | 0.0889 µM |
| C=CC(=O)NC1CN(c2cnc3[nH]ccc3n2)C1 [Example 192, N-[1-(5H-pyrrolo[2,3-b]pyrazin-2-yl)azetidin-3-yl]prop-2-enamide] | 0.272 µM |  |
| C=CC(=O)N1CCC(Nc2cnc3[nH]cc(C(=O)NCC4(O)CCCC(F)(F)C4)c3n2)CC1 (centres unmarked) [Example 249, 2-[(1-acryloylpiperidin-4-yl)amino]-N-[(3,3-difluoro-1-hydroxycyclohexyl)methyl]-5H-pyrrolo[2,3-b]pyrazine-7-carboxamide] | 0.0006 µM | 0.047 µM |
| C=CC(=O)N(C)C1CN(c2cnc3[nH]cc(C(=O)NC(C)C)c3n2)C1 [Example 187, 2-{3-[acryloyl(methyl)amino]azetidin-1-yl}-N-(propan-2-yl)-5H-pyrrolo[2,3-b]pyrazine-7-carboxamide] | 0.0006 µM | 0.0272 µM |
| C=CC(=O)N1C[C@@H](F)C[C@@H](Nc2ncnc3[nH]ccc23)C1 [Example 15, 1-((3R,5S)-3-((7H-Pyrrolo[2,3-d]pyrimidin-4-yl)amino)-5-fluoropiperidin-1-yl)prop-2-en-1-one] | 0.0009 µM | 0.0827 µM |
| C=CC(=O)N1CCC(Nc2cnc3[nH]cc(C(=O)NCC4(O)CCC(F)(F)CC4)c3n2)CC1 [Example 252b, 2-[(1-acryloylpiperidin-4-yl)amino]-N-[(4,4-difluoro-1-hydroxycyclohexyl)methyl]-5H-pyrrolo[2,3-b]pyrazine-7-carboxamide] | 0.0005 µM | 0.0406 µM |
| C=CC(=O)N1CCC[C@@H](Nc2ncnc3[nH]cc(C(=O)NC)c23)C1 [Example 145, 4-{[(3R)-1-acryloylpiperidin-3-yl]amino}-N-methyl-7H-pyrrolo[2,3-d]pyrimidine-5-carboxamide] | 0.112 µM |  |
| C=CC(=O)N1CC[C@@H](Nc2cnc3[nH]cc(C(=O)NC(C)C)c3n2)[C@@H](F)C1 [Example 320, 2-{[(3S,4R)-1-acryloyl-3-fluoropiperidin-4-yl]amino}-N-(propan-2-yl)-5H-pyrrolo[2,3-b]pyrazine-7-carboxamide] | 0.0004 µM | 0.0107 µM |
| C=CC(=O)N1CCC[C@@H](Nc2ncnc3[nH]cc(CCOC)c23)C1 [Example 46, 1-[(3R)-3-{[5-(2-methoxyethyl)-7H-pyrrolo[2,3-d]pyrimidin-4-yl]amino}piperidin-1-yl]prop-2-en-1-one] | 0.0028 µM | 0.305 µM |
| C=CC(=O)N1CCC(Oc2cnc3[nH]cc(-c4ccc(C)nc4)c3n2)CC1 [Example 214, 1-(4-{[7-(6-methylpyridin-3-yl)-5H-pyrrolo[2,3-b]pyrazin-2-yl]oxy}piperidin-1-yl)prop-2-en-1-one] | 0.0023 µM | 0.308 µM |
| C=CC(=O)N1CC2(C1)CN(c1cnc3[nH]cc(C(=O)NC(C)C)c3n1)C2C (centres unmarked) [Example 322, 2-(6-acryloyl-1-methyl-2,6-diazaspiro[3.3]hept-2-yl)-N-(propan-2-yl)-5H-pyrrolo[2,3-b]pyrazine-7-carboxamide] | 0.0294 µM | 3.44 µM |
| O=C(/C=C/CF)N1CC[C@@H]2CCN(c3ncnc4[nH]ccc34)[C@@H]2C1 [Example 87, (2E)-4-fluoro-1-[(3aS,7aS)-1-(7H-pyrrolo[2,3-d]pyrimidin-4-yl)octahydro-6H-pyrrolo[2,3-c]pyrdin-6-yl]but-2-en-1-one] | 0.139 µM | > 10 µM |
| C/C=C/C(=O)N1CCC[C@@H](N2CC(C)c3c[nH]c4ncnc2c34)C1 (mixture of isomers) [Example 154, (2E)-1-[(3R)-3-(3-methyl-3,4-dihydro-1,5,6,8-tetraazaacenaphthylen-5 (1H)-yl)piper-idin-1-yl]but-2-en-1-one] | 4.94 µM |  |
| C=CC(=O)N1CCC(Nc2cnc3[nH]cc(C(=O)N4CCC4)c3n2)CC1 [Example 284, 1-(4-{[7-(azetidin-1-ylcarbonyl)-5H-pyrrolo[2,3-b]pyrazin-2-yl]amino}piperidin-1-yl)prop-2-en-1-one] | 0.0019 µM | 0.176 µM |

| SMILES | IC50 [1] | IC50 [2] |
| --- | --- | --- |
| C=CC(=O)N1CCCN(c2cnc3[nH]cc(C(=O)NC(C)C)c3n2)CC1 [Example 185, 2-(4-acryloyl-1,4-diazepan-1-yl)-N-(propan-2-yl)-5H-pyrrolo[2,3-b]pyrazine-7-carboxamide] | 0.0204 µM | 1.46 µM |
| C=CC(=O)N1C[C@@H](C)N(c2cnc3[nH]cc(C(=O)NC(C)C)c3n2)[C@@H](C)C1 [Example 328, 2-[(2R,6S)-4-acryloyl-2,6-dimethylpiperazin-1-yl]-N-(propan-2-yl)-5H-pyrrolo[2,3-b]pyrazine-7-carboxamide] | 0.0016 µM | 0.222 µM |
| C=CC(=O)N1CCC[C@@H](Nc2ncnc3[nH]cc(/C=C/c4ccoc4)c23)C1 [Example 38, 1-[(3R)-3-({5-[(E)-2-(furan-3-yl)ethenyl]-7H-pyrrolo[2,3-d]pyrimidin-4-yl}amino)piperidin-1-yl]prop-2-en-1-one] | 3.25 µM |  |
| C=CC(=O)N1CCC[C@@H](Nc2ncnc3[nH]cc(-c4ccccc4O)c23)C1 [Example 25, 1-[(3R)-3-{[5-(2-hydroxyphenyl)-7H-pyrrolo[2,3-d]pyrimidin-4-yl]amino}piperidin-1-yl]prop-2-en-1-one] | 0.0029 µM | 0.149 µM |
| C=CC(=O)N1CCC[C@@H](Nc2ncnc3[nH]cc(CCC#N)c23)C1 [Example 62, 3-(4-{[(3R)-1-Acryloylpiperidin-3-yl]amino}-7H-pyrrolo[2,3-d]pyrimidin-5-yl)propanenitrile] | 0.009 µM | 0.65 µM |
| C=CC(=O)N1CC[C@@H](C)[C@@H](N(C)c2ncnc3[nH]ccc23)C1 [Example 130, 1-{(3R,4R)-4-Methyl-3-[methyl(7H-pyrrolo[2,3-d]pyrimidin-4-yl)amino]piperidin-1-yl}prop-2-en-1-one] | 0.0752 µM |  |
| C=C(C)C(=O)N1CCC[C@@H](Nc2ncnc3[nH]cc(CCO)c23)C1 [Example 152, 1-[(3R)-3-{[5-(2-Hydroxyethyl)-7H-pyrrolo[2,3-d]pyrimidin-4-yl]amino}piperidin-1-yl]-2-methylprop-2-en-1-one] | 4.24 µM |  |
| CS/C=C/C(=O)N1CCC[C@@H](Nc2ncnc3[nH]ccc23)C1 [Example 98, (2E)-3-(methylsulfanyl)-1-[(3R)-3-(7H-pyrrolo[2,3-d]pyrimidin-4-ylamino)piperidin-1-yl]prop-2-en-1-one] | 2.63 µM | > 10 µM |
| C=CC(=O)N1CCC[C@@H](Nc2ncnc3[nH]cc(C)c23)C1 [Example 43, 1-{(3R)-3-[(5-methyl-7H-pyrrolo[2,3-d]pyrimidin-4-yl)amino]piperidin-1-yl}prop-2-en-1-one] | 0.0012 µM | 0.0995 µM |
| C=CC(=O)N1CCC(Nc2cnc3[nH]cc(-c4ccnc(F)c4)c3n2)CC1 [Example 211, 1-(4-{[7-(2-fluoropyridin-4-yl)-5H-pyrrolo[2,3-b]pyrazin-2-yl]amino}piperidin-1-yl)prop-2-en-1-one] | 0.0002 µM | 0.0342 µM |
| C=CC(=O)N1CCN(c2cnc3[nH]cc(C(=O)NC(C)C)c3n2)[C@@H](C(C)C)C1 [Example 323, 2-[(2S)-4-acryloyl-2-(propan-2-yl)piperazin-1-yl]-N-(propan-2-yl)-5H-pyrrolo[2,3-b]pyrazine-7-carboxamide] | 0.0119 µM | 0.886 µM |
| C=CC(=O)N1C[C@H](C#N)C[C@@H](Nc2ncnc3[nH]ccc23)C1 [Example 6, (3R,5R)-5-((7H-pyrrolo[2,3-d]pyrimidin-4-yl)amino)-1-acryloylpiperidine-3-carbonitrile] | 0.0003 µM | 0.04 µM |
| C=CC(=O)N1CCC(Nc2cnc3[nH]cc(C(=O)N[C@H]4CC[C@@H](F)C4)c3n2)CC1 [Example 244, 2-[(1-acryloylpiperidin-4-yl)amino]-N-[(1S,3R)-3-fluorocyclopentyl]-5H-pyrrolo[2,3-b]pyrazine-7-carboxamide] | 0.0002 µM | 0.0073 µM |
| N#CCCc1c[nH]c2ncnc(N[C@@H]3CCCN(C(=O)/C=C/CO)C3)c12 [Example 158, 3-[4-({(3R)-1-[(2E)-4-Hydroxybut-2-enoyl]piperidin-3-yl}amino)-7H-pyrrolo[2,3-d]pyrimidin-5-yl]propanenitrile] | > 10 µM |  |
| C=CC(=O)N1CCC(Nc2cnc3[nH]cc(C(=O)NCCCC)c3n2)CC1 [Example 269, 2-[(1-acryloylpiperidin-4-yl)amino]-N-butyl-5H-pyrrolo[2,3-b]pyrazine-7-carboxamide] | 0.0002 µM | 0.0073 µM |
| C=CC(=O)N1CCC(Nc2cnc3[nH]cc(C(=O)NCC4(O)CCC4)c3n2)CC1 [Example 231, 2-[(1-acryloylpiperidin-4-yl)amino]-N-[(1-hydroxycyclobutyl)methyl]-5H-pyrrolo[2,3-b]pyrazine-7-carboxamide] | 0.0006 µM | 0.0526 µM |
| C=CC(=O)N1CCC(Nc2cnc3[nH]cc(C(=O)N[C@@H]4CC[C@H](F)C4)c3n2)CC1 [Example 255, 2-[(1-acryloylpiperidin-4-yl)amino]-N-[(1R,3S)-3-fluorocyclopentyl]-5H-pyrrolo[2,3-b]pyrazine-7-carboxamide] | 0.0003 µM | 0.0097 µM |

Source: patent publication US20250134869A1, “Pyrrolo[2,3-d]pyrimidinyl, Pyrrolo[2,3-b]pyrazinyl and Pyrrolo[2,3-d]pyridinyl Acryla-mides” (Pfizer Inc, priority 2021, published 2025)
